# Laboratory results taken from paper PMC7822819, “Discovery of a new class of integrin antibodies for fibrosis” (Scientific Reports, 2021).
# Read-outs that look alike come from different tables or passages of the source.
# Target: human αvβ8 (Homo sapiens, UniProt P06756+P26012)
# Assay: AlphaLISA integrin-ligand binding assay
# Assay type: biochemical
# Design: hαV 1 992; hβ8 1 684; made in house; host or cells: Expi293
# Experimental: In the AlphaLISA integrin assays, we used a HEPES based buffer (25 mM HEPES pH 7.4, 137 mM NaCl, 1 mM MgCl2, 1 mM MnCl2, 2 mM CaCl2, 2.7 mM KCl, and 0.05% Tween-20). Optimal assay conditions were determined with a titration of the reagents for signal noise ratio (S/N), linear range, etc. For the respective integrins, we used the final concentrations described in Supplemental Table S3. Briefly, the testing antibody (8 μL) was added as a 4x (of Final testing concentration) solution in the HEPES buffer described previously into a 384w AlphaPlate (Perkin Elmer #6005350). Then the integrin and ligand were added sequentially as 8x (4 μL each). Plates were sealed and incubated at room temperature for 2 h. Then 4 × acceptor bead solution (8 μL) was added, and the plates were resealed and incubated at RT for 1 h. Finally, 4 × (8 μL) donor beads solution was added in a darkened room and incubated for 45 min at room temperature. Plates were read on the Envision (Perkin Elmer) in AlphaScreen mode within 3 h of donor bead addition.
# Supplemental Table S3. integrin AlphaLIS A assay reagents and conditions Human A l phal i sa Inte gri n A ssays: Fi nal Condi ti ons […]
# ( batch de pe nde nt) anti body A l phaLi sa A cce ptor havb1 1. 4 nM 1. 0 nMα - Fi brone cti n human Fi brone cti n n/a A cce ptor be ads/ Pe rki n 10. 0 ug/ m 10. 0 ug/ m […]
# havb3 3. 0 nM 10. […]
# Sequence of human αvβ8 (P06756 31-992): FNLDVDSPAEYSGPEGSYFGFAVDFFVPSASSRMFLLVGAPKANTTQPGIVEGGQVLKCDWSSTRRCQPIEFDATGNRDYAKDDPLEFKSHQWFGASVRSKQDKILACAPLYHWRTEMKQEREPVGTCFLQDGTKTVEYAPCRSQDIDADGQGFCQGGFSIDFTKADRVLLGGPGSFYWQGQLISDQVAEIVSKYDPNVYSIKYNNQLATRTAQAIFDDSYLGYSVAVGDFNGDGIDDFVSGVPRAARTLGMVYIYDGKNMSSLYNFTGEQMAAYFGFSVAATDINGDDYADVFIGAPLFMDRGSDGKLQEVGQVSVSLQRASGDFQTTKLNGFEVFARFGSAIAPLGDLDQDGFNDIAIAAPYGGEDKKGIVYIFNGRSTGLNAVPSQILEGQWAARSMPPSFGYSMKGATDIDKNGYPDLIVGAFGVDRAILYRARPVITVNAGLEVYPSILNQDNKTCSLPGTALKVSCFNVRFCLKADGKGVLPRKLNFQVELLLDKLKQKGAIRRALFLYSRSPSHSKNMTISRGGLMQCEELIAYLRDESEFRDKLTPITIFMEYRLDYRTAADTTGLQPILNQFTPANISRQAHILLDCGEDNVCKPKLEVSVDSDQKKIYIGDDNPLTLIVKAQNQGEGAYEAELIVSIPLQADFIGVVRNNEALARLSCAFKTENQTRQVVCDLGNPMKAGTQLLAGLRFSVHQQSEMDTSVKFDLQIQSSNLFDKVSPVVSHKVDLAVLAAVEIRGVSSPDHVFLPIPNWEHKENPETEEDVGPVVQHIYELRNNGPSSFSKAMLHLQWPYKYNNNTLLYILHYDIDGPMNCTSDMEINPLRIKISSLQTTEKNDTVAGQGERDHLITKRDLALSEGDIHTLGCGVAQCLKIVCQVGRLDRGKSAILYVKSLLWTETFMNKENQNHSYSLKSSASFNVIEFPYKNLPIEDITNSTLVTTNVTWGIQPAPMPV
# Sequence of human αvβ8 (P26012 43-684): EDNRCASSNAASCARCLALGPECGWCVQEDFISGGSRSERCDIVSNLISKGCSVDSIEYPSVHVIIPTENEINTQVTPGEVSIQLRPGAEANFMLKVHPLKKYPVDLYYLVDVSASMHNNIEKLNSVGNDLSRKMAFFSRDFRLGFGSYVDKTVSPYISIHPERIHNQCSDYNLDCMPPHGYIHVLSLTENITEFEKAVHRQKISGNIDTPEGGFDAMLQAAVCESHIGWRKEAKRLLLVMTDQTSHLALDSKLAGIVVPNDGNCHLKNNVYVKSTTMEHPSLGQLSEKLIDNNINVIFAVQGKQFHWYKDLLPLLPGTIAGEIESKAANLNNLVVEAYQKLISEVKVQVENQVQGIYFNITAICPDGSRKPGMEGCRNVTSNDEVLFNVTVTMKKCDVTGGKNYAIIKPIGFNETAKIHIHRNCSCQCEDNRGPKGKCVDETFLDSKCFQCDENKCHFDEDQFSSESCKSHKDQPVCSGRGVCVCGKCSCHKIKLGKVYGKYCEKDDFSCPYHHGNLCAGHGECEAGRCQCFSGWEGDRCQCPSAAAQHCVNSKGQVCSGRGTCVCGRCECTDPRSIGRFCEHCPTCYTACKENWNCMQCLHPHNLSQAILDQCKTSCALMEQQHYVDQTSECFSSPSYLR
smiles,measurement,setting,value
COc1ccc(C(CC(=O)O)N2CCN(CCCc3ccc4c(n3)NCCC4)C2=O)cn1 (centres unmarked) [MK-0429],IC50,"Fig. 3D, assay optimisation, read-out: IC50 human αvβ8 AlphaLISA",58.3 nM
same,IC50,"Fig. 4B, read-out: IC50 Human integrin AlphaLISA assays: hαvβ8",3.1 nM
